Source: paper PMC8790063, “Discovery of Benzopyrrolizidines as Promising Antigiardiasic Agents” (Frontiers in Cellular and Infection Microbiology, 2022)
“And” between values parts separate entries of the source, which are not always exact repeats. Equal values may be shown once.

Tests used:
Assay type in all cases: cell-based
[1] = test system: Giardia lamblia trophozoites; assay: Morphological studies of trophozoites (bright-field microscopy, transmission electron microscopy); conditions: at the IC50 concentration, 24 hours; for Morphological effects on trophozoites (bright-field microscopy): Giemsa stain
Procedure: For bright-field microscopy (BFM), 2x10^6 trophozoites were placed in 1.5 mL vials containing antibiotic-free TYI-S-33 culture medium, with or without metronidazole, tinidazole, albendazole, or the library compounds, at the IC50 concentration values. The trophozoites were incubated for 24 hours/37°C and harvested by chilling in ice bath for 15 minutes and centrifuged at 2,000 x g/5 minutes. The bottom cell was washed three times with PBS, and then, placed in glass slides, fixed with MeOH and stained with Giemsa. Finally, the samples were analyzed by BFM. To identify ultrastructural damage, 1x10^6 trophozoites treated as described before were fixed with 2.5% glutaraldehyde and post-fixed with 1% osmium tetroxide in 0.1 M cacodylate buffer, pH 7.2. Afterward, the samples were dehydrated with sequential increasing of ethanol concentrations and then, embedded in epoxy resin. Ultrathin sections of samples were analyzed in a JEOL-JEM-1200 transmission electron microscope coupled to a CCD GATAN camera in the Unidad de Imagenología del Instituto de Fisiología Celular, UNAM.

[2] = test system: Giardia lamblia trophozoites; assay: In vitro cytotoxicity microassay with XTT viability readout on trophozoites; conditions: for % cell death 100 µM: second set of 20 compounds (Table S10); for % cell death at 12.5 µM (Hits confirmation) / % cell death at 25 µM (Hits confirmation) / % cell death at 50 µM (Hits confirmation) / % cell death at 100 µM (First screening): Table S9; for % cell death 100 µM / % cell death at 100 µM (First screening) / % cell death: 100 µM; for % cell death: first set of 54 compounds (Table S8); for IC50: G. lamblia trophozoites, standard deviation in parenthesis
Procedure: The cytotoxicity test was performed using sterile 96 well clear flat bottom polystyrene TC-treated microplates (Corning Costar #3596). Every well contained in a triplicate 287.5 µL medium supplemented with a first set of 54 compounds of the collection, control drugs (metronidazole and tinidazole), and negative controls (0.05% DMSO). Afterwards, 12.5 µL of a cell suspension containing 1.6 x 10^7 trophozoites/mL was added to every well to obtain a final number of 2x10^5 cells/well and incubated at 37°C for 24 hours. […] A triplicate of blank was done by filling three wells with only 300 µL culture medium (no cells but DMSO). After that, the plates were chilled for 30 minutes to separate the adhered trophozoites in wells. Later, we transferred 50 µL of this suspension to a second plate containing 250 µL of TYI-S-33 media free of compounds, DMSO or antibiotic per well, and re-cultivated at 37°C for 24 hours. The test was performed by two independent experiments for all compounds.
>The trophozoites viability was evaluated using the 2,3-Bis(2-methoxy-4-nitro-5-sulfophenyl)-sH-tetrazolium-5-carboxianilide inner salt (XTT) assay. Antigiardiasic activity of each compound was expressed as the death percentage, calculated by using the next equation ([Inc, 2020]):
% death=[(Abs. of well with 100% viability−Abs. of well with compound)/(Abs. of well with 100% viability−Abs. of blank well)]X 100
The assay was performed by two independent experiments, where each compound was tested by triplicate.

[3] = test system: HaCaT cells; assay: Cytotoxicity assay in human keratinocytes (crystal violet); conditions: for IC50: HaCaT human keratinocytes, standard deviation in parenthesis; for Selectivity Index: IC50 HaCaT/IC50 Trophozoites
Procedure: The in vitro cytotoxicity evaluation of compounds was assayed in immortalized human keratinocytes cell line (HaCat). Briefly, cell cultures were grown in DMEM-F12 media supplemented with 10% decomplemented fetal bovine serum, at 37°C and 5% CO2. Before to test, cells were harvested by centrifugation at 25°C and resuspended in fresh media at 5x10^4 cells/mL. Then, the cells were placed in sterile 24 well clear flat bottom polystyrene TC-treated plates (Corning Costar, #353047) at 3x10^4 cells/well in a volume of 600 µL during 24 hours/37°C at 5% CO2, […] of media was replaced by the same amount of fresh media containing the compounds at concentrations of 100, 90, 80, 70, 60, and 50 µM; DMSO was used as a negative control. The cells were incubated for 48 hours/37°C and 5% CO2. In the end, the cells were washed two times with PBS, fixed and stained by incubating 15 minutes in a solution containing 50% EtOH, 1.75% formaldehyde, 0.75% crystal violet, and 0.25% NaCl. Then, the plates were washed several times with water until removing the colorant excess. After that, the plates were dried for one day at 25°C. Finally, 600 µL of PBS supplemented with 1% SDS was added to wells. The crystal violet incorporated to cells was spectrophotometrically quantified at 570 nm; the IC50 values were calculated from the percentage of death obtained from the different concentrations of assayed compounds. The assay was performed by two independent experiments, each compound was tested by triplicate.

Row | Compound | Ultrastructural effects on trophozoites (transmission electron microscopy) [1] | Morphological effects on trophozoites (bright-field microscopy) [1] | % cell death 25 µM ([2]; 25 µM, second set (Table S10)) [%] | % cell death 50 µM ([2]; 50 µM, second set (Table S10)) [%] | % cell death 100 µM [2] [%] | % cell death at 12.5 µM (Hits confirmation) [2] [%] | % cell death at 25 µM (Hits confirmation) ([2]; 25 µM) | % cell death at 50 µM (Hits confirmation) ([2]; 50 µM) [%] | % cell death at 100 µM (First screening) [2] [%] | % cell death [2] [%] | IC50 ([2]; Giardia duodenalis) [µM] | IC50 ([3]; 48 hours) [µM] | IC50 ([3]; Homo sapiens, HaCaT, 48 h) [µM] | Selectivity Index [3] | IC50 [2] [µM]
1 | CCCSc1ccc2nc(NC(=O)OC)[nH]c2c1 [Albendazole] | loss of adhesive disc | an intense deformation of its general structure was observed | – | – | – | – | – | – | – | – | – | – | – | – | –
2 | COc1ccc(/C=C2/CC3(C(=O)NC(C)(C)C)c4ccccc4CN3C2=O)cc1OC (stereo not drawn) [EHV-110-106] | – | – | 8.2 | 13.4 | 89.2 | – | – | – | – | – | – | – | – | – | –
3 | COc1ccc(/C=C2/CC3(C(=O)NC4CCCCC4)c4ccccc4CN3C2=O)cc1OC (stereo not drawn) [EHV-110-154] | – | affected the nuclear structure and promoted the loss of one nucleus | – | – | – | 4.160 | 10.752% | 94.654 | 100.0 | 100.0 | 30 | 50.6 | 50 | 1.68 | –
4 | COc1ccc(/C=C2/CC3(C(=O)NC(C)(C)C)c4cc(F)ccc4CN3C2=O)cc1OC (stereo not drawn) [EHV-110-160] | – | affected the nuclear structure and promoted the loss of one nucleus | – | – | – | 2.874 | 67% and 66.901% | 98.178 | 100.0 | 100.0 | 20 | – | 141 | 7 | –
5 | COc1ccc(/C=C2/CC3(C(=O)N[C@@H](C)c4ccccc4)c4ccccc4CN3C2=O)cc1OC (stereo partly drawn) [EHV-110-174, 2-((Z)-3,4-dimethoxybenzylidene)-3-oxo-N-((S)-1-phenylethyl)-2,3-dihydro-1H-pyrrolo[2,1-a]isoindole-9b(5H)-carboxamide] | damaged the cellular nuclei inducing chromatin condensation and conferring to it a speckled pattern | the cells are translucent and swelling, with shortening of flagella but without general morphological deformation | – | – | – | – | 98.298% | 98.312 | 100.0 | 100.0 | 11 | – | 130 | 12 | 10.9
6 | Cc1ncc([N+](=O)[O-])n1CCO [Metronidazole, reference compound] | without apparent morphologic changes | provoked cell swelling and the voiding of cytoplasmic contents making the cells translucent | – | – | 100.1 | 86.562 | – | – | 100.0 | 100.0 | 2.6 | – | 71.9 | 27.6 | –
7 | CCS(=O)(=O)CCn1c([N+](=O)[O-])cnc1C [Tinidazole, reference compound] | – | provoked cell swelling and the voiding of cytoplasmic contents making the cells translucent | – | – | 100.7 | 98.499 | – | – | 100.0 | 100.0 | 1.3 | – | 60.9 | 46 | –
